Reference: paper PMC12187842, “A novel molecule targeting neutrophil-mediated B-1a cell trogocytosis attenuates sepsis-induced acute lung injury” (Frontiers in Immunology, 2025)

Tests used:
Type in all cases: in vivo, mouse
[1] = tested on: CLP-induced sepsis in C57BL/6 mice; assay: TUNEL assay of lung tissue in CLP mice; settings: C11 10 mg/kg i.p. once after CLP (Figure 5 legend: 10 μg/kg); 20 h; n = 5-7/group; vs. CLP vehicle
From the text: (§1) Mice were anesthetized with 2% isoflurane in oxygen, and sepsis was induced via cecal ligation and puncture (CLP) ([26]). A 1-cm midline abdominal incision was made to expose the cecum, which was ligated 1-cm proximal to its end using a 4-0 silk suture. The cecum then was perforated with a single through-and-through puncture using a 22-gauge needle, positioned midway between the ligation and the tip of the cecum. A small amount of fecal material was gently extruded from the perforation sites to confirm the patency of the punctures, and the cecum was subsequently returned to the peritoneal cavity. Following abdominal closure, resuscitation was provided via subcutaneous (s.c.) injection of 500 µL normal saline. Postoperative analgesia was administered with a single dose of 0.1 mg/kg buprenorphine. […]
To determine cellular apoptosis we used a TUNEL assay kit (Roche Diagnostics, Indianapolis, IN) using 5-μm lung sections by following the manufacturer’s instructions. […] The TUNEL-positive cells were assessed by LSM900 confocal microscope (Zeiss) microscopes. The number of apoptotic cells/fields was quantified using ImageJ, Fiji software (version 1.53k).

[2] = tested on: CLP-induced sepsis in C57BL/6 mice; assay: Lung tissue mRNA expression in CLP mice by real-time qPCR; settings: C11 10 mg/kg i.p. once after CLP (Figure 5 legend: 10 μg/kg); 20 h; normalized to β-actin; n = 5-7/group; vs. CLP vehicle
From the text: (§2) Mice were anesthetized with 2% isoflurane in oxygen, and sepsis was induced via cecal ligation and puncture (CLP) ([26]). A 1-cm midline abdominal incision was made to expose the cecum, which was ligated 1-cm proximal to its end using a 4-0 silk suture. The cecum then was perforated with a single through-and-through puncture using a 22-gauge needle, positioned midway between the ligation and the tip of the cecum. A small amount of fecal material was gently extruded from the perforation sites to confirm the patency of the punctures, and the cecum was subsequently returned to the peritoneal cavity. Following abdominal closure, resuscitation was provided via subcutaneous (s.c.) injection of 500 µL normal saline. Postoperative analgesia was administered with a single dose of 0.1 mg/kg buprenorphine. To evaluate the effects of the therapeutic peptide (named Compound 11 or C11) (synthesized by GenScript USA Inc., Piscataway, NJ) on sepsis, C57BL/6 mice were assigned to three experimental groups: the Sham group, the CLP group treated with vehicle, and the CLP group treated with C11 (10 mg/kg). C11 was dissolved in DMSO (10 mg/mL) and diluted with saline to a total volume of 500 µL. The peptide was administered once, immediately after surgery, via intraperitoneal (i.p.) injection. Mice in the vehicle group received an equivalent volume of DMSO and normal saline via i.p. injection. After 20 h, lungs were harvested, and blood was collected via cardiac puncture. For the survival study, animals received a single subcutaneous (s.c.) injection of 0.5 mg/kg imipenem at the end of the CLP.
Total RNA was extracted from lungs using a TRIzol reagent (Thermo Fisher Scientific) according to the manufacturer’s instructions. cDNA was synthesized using M-MLV reverse transcriptase (Thermo Fisher Scientific). Quantitative real-time PCR (qPCR) was performed using SYBR Green PCR Master Mix (Thermo Fisher Scientific) with a StepOnePlus Real-Time PCR thermocycler (Thermo Fisher Scientific). Mouse β-actin served as an endogenous control to normalize mRNA levels using the comparative Ct method. […]

[3] = tested on: CLP-induced sepsis in C57BL/6 mice; assay: Plasma organ injury markers in CLP mice by colorimetric enzymatic assays; settings: C11 10 mg/kg i.p. once after CLP (Figure 5 legend: 10 μg/kg); 20 h; n = 5-7/group; vs. CLP vehicle
From the text: as §2
(§3) Blood was collected by heart puncture. Plasma levels of organ injury markers (ALT: alanine transaminase, AST: aspartate transferase, and LDH: lactate dehydrogenase) were assessed by using colorimetric enzymatic assays (MedTest Dx, Canton, MI) according to the manufacturer’s protocol. Plasma levels of pro-inflammatory cytokines (TNFα: tumor necrosis factor α, and IL-6: interleukin-6) were measured by using mouse-specific ELISA kits (BD Biosciences).

[4] = tested on: CLP-induced sepsis in C57BL/6 mice; assay: Plasma pro-inflammatory cytokines in CLP mice by ELISA; settings: C11 10 mg/kg i.p. once after CLP (Figure 5 legend: 10 μg/kg); 20 h; n = 5-7/group; p < 0.05 vs. CLP vehicle
From the text: as §1, §3

[5] = tested on: CLP-induced sepsis in C57BL/6 mice; assay: Survival study in CLP mice; settings: C11 10 mg/kg i.p. once after CLP (Figure 5 legend: 10 μg/kg), single s.c. imipenem 0.5 mg/kg; n = 21/group; CLP vehicle 28.6%; p < 0.05 vs. CLP vehicle, log-rank
From the text: as §1
All statistical analyses were performed using Prism 10 (GraphPad Software, San Diego, CA). Data are expressed as the mean ± standard error of the mean (SEM), and p-values < 0.05 were considered statistically significant. […] For survival analysis, data were assessed using the Kaplan-Meier estimator and compared using the log-rank test.

[6] = tested on: CLP-induced sepsis in C57BL/6 mice; assay: Lung wet-to-dry weight ratio in CLP mice; settings: C11 10 mg/kg i.p. once after CLP (Figure 5 legend: 10 μg/kg); 20 h; n = 5-7/group; vs. CLP vehicle
From the text: as §2, with “The peptide was administered once, immediately after surgery, via intraperitoneal (i.p.) injection. Mice in the vehicle group received an equivalent volume of DMSO and normal saline via i.p. injection. After 20 h, lungs were harvested, and blood was collected via cardiac puncture. For the survival study, animals received a single subcutaneous (s.c.) injection of 0.5 mg/kg imipenem at the end of the CLP.” left out
Lung wet and dry weights were measured as previously described ([30]). […] The wet-to-dry weight ratio was calculated as an indicator of pulmonary edema.

Which results are given for 126-ELKNRTVSWFS-136 [Compound C11]?
lung apoptosis (TUNEL+ cells) [1]: reduced tissue damage and apoptosis; lung tissue CXCL1 (KC) mRNA [2]: significantly reduced; lung tissue CXCL2 (MIP-2) mRNA [2]: significantly reduced; lung tissue IL-6 mRNA [2]: significantly reduced; blood ALT [3]: markedly reduced; blood AST [3]: markedly reduced; blood LDH [3]: markedly reduced; plasma IL-6 [4]: significantly reduced; plasma TNF-α [4]: significantly reduced; survival [5]: 57.1%; sepsis-induced pulmonary edema (lung wet-to-dry ratio) [6]: effectively reduced
